ChEMBL document CHEMBL5154759, “Discovery of Aryl Benzoyl Hydrazide Derivatives as Novel Potent Broad-Spectrum Inhibitors of Influenza A Virus RNA-Dependent RNA Polymerase (RdRp)” (J Med Chem, 2022)

Legend:
Influenza A virus [1] = assay: microbe, parasite or virus in culture; settings: H5N1, MDCK, 48 h
Influenza A virus [2] = assay: Antiviral activity against influenza A virus (A/Puerto Rico/8/34) H1N1; format: functional, organism-based; settings: (A/Puerto Rico/8/34) H1N1, MDCK
Influenza A virus [3] = assay: Antiviral activity against influenza A virus (A/Vietnam/1203/2004) H5N1; format: functional, organism-based; settings: (A/Vietnam/1203/2004) H5N1, MDCK
Influenza A virus [4] = settings: mdck

SMILES | EC50 (Influenza A virus [1]) | further results
COc1ccc(C(=O)NNc2c(Br)cccc2Br)cc1 | 2300 nM | –
O=C(O)[C@H]1C2CCC(CC2)[C@@H]1Nc1nc(-c2c[nH]c3ncc(F)cc23)ncc1F [PIMODIVIR] | – | EC50 (Influenza A virus [2]): 0.3 nM; EC50 (Influenza A virus [3]): 0.1 nM
CC(C)(C)c1ccc(C(=O)NNc2c(Br)cccc2Br)cc1 | 37 nM | –
O=C(NNc1c(Br)cccc1Br)c1cccnc1 | > 100000 nM | –
CCOc1ccc(C(=O)NNc2c(Br)cc(Br)cc2Br)cc1 | 4200 nM | –
CCOc1ccc(C(=O)NNc2c(C)cccc2C)cc1 | 460 nM | –
O=C(NNc1c(Br)cccc1Br)c1ccc2ccccc2c1 | 1200 nM | –
CCCCOc1ccc(C(=O)NNc2c(Br)cccc2Br)cc1 | 230 nM | –
CCN(CC)c1ccc(C(=O)NNc2c(Br)cccc2Br)cc1 | 9.3 nM | –
CCOc1ccc(C(=O)Nc2c(Br)cccc2Br)cc1 | > 100000 nM | –
COc1cccc(C(=O)NNc2c(Br)cccc2Br)c1 | > 100000 nM | –
O=C(NNc1c(Cl)cccc1Cl)c1ccccc1 | > 100000 nM | –
COC(=O)c1ccc(C(=O)NNc2c(Br)cccc2Br)cc1 | 330 nM | –
CN(C)c1ccc(C(=O)NNc2c(F)cccc2F)cc1 | > 100000 nM | –
CCOc1ccc(C(=O)NNc2c(Cl)cccc2Cl)cc1 | 77 nM | –
CCCOc1ccc(C(=O)NNc2c(Br)cccc2Br)cc1 | 23 nM | –
O=C(NNc1c(Br)cccc1Br)c1ccc2c(c1)OCO2 | 13000 nM | –
O=C(NNc1c(Br)cccc1Br)c1ccc(Br)cc1 | 22000 nM | –
O=C(O)c1ccc(C(=O)NNc2c(Br)cccc2Br)cc1 | > 100000 nM | –
O=C(NNc1c(Cl)cccc1Cl)c1cccs1 | > 100000 nM | –
O=C(NNc1c(Br)cccc1Br)c1ccc(F)cc1 | 88000 nM | –
O=C(NNc1c(Br)cccc1Br)c1ccc2ncccc2c1 | 24000 nM | –
O=C(NNc1c(Br)cccc1Br)c1ccc(OCC(F)(F)F)cc1 | 34 nM | –
CC(=O)N[C@H]1[C@H]([C@H](O)[C@H](O)CO)OC(C(=O)O)=C[C@@H]1NC(=N)N [ZANAMIVIR] | 76 nM | EC50 (Influenza A virus [4]): 160 nM
CN(C)c1ccc(C(=O)NNc2c(Br)cc(Br)cc2Br)cc1 | 230 nM | –
